Experimental findings from US8906853B2, “[N-Me-4-hydroxyleucine]-9-cyclosporin analogues for treatment and prevention of hepatitis C infection” (Enanta Pharmaceuticals, Inc., priority 2012, dated 2014) are described below.

For experiment [1], the system named is HCV 1b genotype replicon (strain Con1, SGR 11-7 cells). Put plainly: HCV replicon assay, qRT-PCR, genotype 1b replicon cell line (SGR 11-7). The class given is cell-based. The note with it: HCV genotype 1b replicon, HCV RNA by qRT-PCR normalized to GAPDH RNA. An excerpt: (§1) HCV replicon cell lines (kindly provided by R. Bartenschlager) isolated from colonies as described by Lohman et al. (Lohman et al. (1999) Science 285: 110-113, expressly incorporated by reference in its entirety) and used for all experiments. One of the HCV replicon cell lines (strain Con1, genotype 1b) has the nucleic acid sequence set forth in EMBL Accession No.: AJ242651, the coding sequence of which is from nucleotides 1801 to 8406. Another replicon cell line (strain H77, genotype 1a) was constructed as described by Yi et al. (Yi et al. (2004) Journal of Virology 78(15):7904-15). […]
(§2) EC50 values of single agent compounds were determined by HCV RNA detection using quantitative RT-PCR, according to the manufacturer's instructions, with a TAQMAN® One-Step RT-PCR Master Mix Reagents Kit (Cat# AB 4309169, Applied Biosystems) on an ABI Model 7500 thermocycler. EC50 values of combinations are similarly determined by HCV RNA detection using quantitative RT-PCR. The TAQMAN primers to use for detecting and quantifying HCV RNA obtained from Integrated DNA Technologies. HCV RNA is normalized to GAPDH RNA levels in drug-treated cells, which is detected and quantified using the Human GAPDH Endogenous Control Mix (Applied Biosystems, AB 4310884E). […] Chemical agent cytotoxicity is evaluated using an MTS assay according to the manufacturer's directions (Promega). […]

In experiment [2] the test system is HCV 1a genotype replicon (strain H77, Huh-1a7 cells). The experiment is described as follows: HCV replicon assay, qRT-PCR, genotype 1a replicon cell line (Huh-1a7). The format is cell-based. The note with it: HCV genotype 1a replicon, HCV RNA by qRT-PCR normalized to GAPDH RNA.
Description: as §1, §2

On to `CC(C)CCCCN1CCOCC1` [Example 1], for which the 50% effective concentration (EC50) in experiment [1] (Hepatitis C virus) and in experiment [2] (Hepatitis C virus) was below 0.2 µM in each case.
On to Allisporivir, for which the EC50 in experiment [1] and in experiment [2] was below 0.2 µM each time.
